# How the values were obtained:
# [1] = target: T1, COX-1 ovine enzyme (Ovis aries, UniProt P05979); assay: Fluorometric COX-1 inhibitor screening kit; assay type: biochemical; conditions: for inhibition at 100 µM: at 100 µM concentration; for IC50: fluorometric kit
# T1 construct: purchased Abcam ab204698
# T1 sequence (P05979 25-600): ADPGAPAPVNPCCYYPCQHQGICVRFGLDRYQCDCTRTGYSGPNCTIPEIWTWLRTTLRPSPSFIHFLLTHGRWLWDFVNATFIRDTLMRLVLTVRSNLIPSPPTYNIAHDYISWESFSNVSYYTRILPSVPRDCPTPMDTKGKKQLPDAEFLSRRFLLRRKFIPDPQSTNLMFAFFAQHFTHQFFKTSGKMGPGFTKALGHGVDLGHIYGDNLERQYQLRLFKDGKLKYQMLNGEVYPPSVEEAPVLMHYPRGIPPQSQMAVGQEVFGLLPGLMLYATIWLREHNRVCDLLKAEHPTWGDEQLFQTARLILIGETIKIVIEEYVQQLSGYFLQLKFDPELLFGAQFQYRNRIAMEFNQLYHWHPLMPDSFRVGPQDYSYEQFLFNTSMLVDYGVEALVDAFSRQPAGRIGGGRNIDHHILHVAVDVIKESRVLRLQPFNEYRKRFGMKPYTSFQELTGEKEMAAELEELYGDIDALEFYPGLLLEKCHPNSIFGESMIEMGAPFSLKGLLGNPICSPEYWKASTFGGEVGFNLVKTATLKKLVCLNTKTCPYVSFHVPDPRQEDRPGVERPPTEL
# Experimental: The COX-1 and COX-2 inhibitory activates of the synthesized compounds were tested using fluorometric COX-1 (Catalog Number: ab204698) and COX-2 (Catalog Number: ab283401) inhibitor screening kits (Abcam, United Kingdom). These assays are based on the fluorometric detection of Prostaglandin G2, generated by the COX enzyme. The experiment was conducted according to the manufacturer’s instructions. Each assay consists of a COX Assay Buffer, COX Probe (in DMSO), COX Cofactor (in DMSO), arachidonic acid and NaOH. The COX-1 inhibitor screening kit contains COX-1 ovine enzyme and COX-1 inhibitor SC560 (dissolved in DMSO), while the COX-2 inhibitor screening kit contains COX-2 human recombinant enzyme and COX-2 inhibitor Celecoxib (dissolved in DMSO). The tested compounds were dissolved in DMSO and further diluted five times with the COX Assay Buffer. The Inhibitor Control (IC) was prepared by adding 2 µL of COX-1/COX-2 inhibitor and 8 µL of COX Assay Buffer into assigned wells, while the Solvent Control (SC) was prepared by adding 2 µL of DMSO and 8 µL of COX Assay Buffer into assigned wells and the Sample (S) and Enzyme Control (EC) were prepared by adding 10 µL of diluted tested compounds or COX Assay Buffer into assigned wells. The Reaction Master Mix (COX Assay Buffer, COX Probe, Diluted COX Cofactor and COX-1/COX-2 Enzyme) was prepared according to instructions and 80 µL of the Reaction Master Mix was added into each well. Meanwhile, a diluted arachidonic acid/NaOH solution was prepared and 10 µL was added into each well using a multi-channel pipette to initiate all the reactions at the same time. The fluorescence values (Ex/Em = 535/587 nm) of the samples were kinetically measured at 25 °C for 5–10 min. The EC, SC, IC and tested compounds at all concentrations were analyzed in triplicates. Two points (T1 and T2) in the linear range of the plot were chosen and corresponding fluorescence values (RFU1 and RFU2) were obtained. The slope for all samples was calculated by dividing ΔRFU (RFU2-RFU1) by time Δt (T2−T1). The percentage of inhibition was calculated as follows: % Relative Inhibition=Slope of EC−Slope of S/Slope of EC∗100
# Fluorescence measurements were performed on a BioTek Synergy LX multi-mode reader (Winooski, VT, USA).
inhibition at 100 µM [1] [%],IC50 [1] [µM],melting point [°C],Structure (SMILES)
< 50,> 100,–,"COc1ccc2c(c1)c(CNC(=O)NO)c(C)n2C(=O)c1ccc(Cl)cc1 [Compound 1, N’-hydroxy-N-[(1-(4-chlorobenzoyl)-5-methoxy-2-methyl-3-indolyl)methyl]urea]"
–,–,117 to 119,"COC(=O)C(Cc1c[nH]cn1)NC(=O)c1cc(C(C)(C)C)c(O)c(C(C)(C)C)c1 (stereo not shown) [Compound 4, 2-(3,5-di-tert-butyl-4-hydroxy-benzoylamino)-3-(1H-imidazol-4-yl)-propionic acid methyl ester]"
< 50,> 100,130 to 132,"COC(=O)CNC(=O)c1cc(C(C)(C)C)c(O)c(C(C)(C)C)c1 [Compound 5, (3,5-di-tert-butyl-4-hydroxy-benzoylamino)-acetic acid methyl ester]"
< 50,> 100,182 to 183.5,"C=CCNC(=O)c1cc(C(C)(C)C)c(O)c(C(C)(C)C)c1 [Compound 6, N-allyl-3,5-di-tert-butyl-4-hydroxy-benzamide]"
–,–,178.5 to 180,"C#CCNC(=O)c1cc(C(C)(C)C)c(O)c(C(C)(C)C)c1 [Compound 7, 3,5-di-tert-butyl-4-hydroxy-N-prop-2-ynyl-benzamide]"
< 50,> 100,–,CC(=O)N(O)C(C)c1ccc(CC(C)C)cc1 (stereo not shown) [Compound 11]
< 50,> 100,–,"COc1ccc2cc(C(C)N(O)C(C)=O)ccc2c1 (stereo not shown) [Compound 12, N-hydroxy-N-[1-(6-methoxy-naphthalen-2-yl)-ethyl]-acetamide]"
–,–,244.5 to 246.5,"CC(C)(C)c1cc(C=C2SC(=S)N(N)C2=O)cc(C(C)(C)C)c1O [Compound 13, 3-amino-5-(3,5-di-tert-butyl-4-hydroxy-benzylidene)-2-thioxo-thiazolidin-4-one]"

# More lines, now with the values behind:
Structure (SMILES),inhibition at 100 µM [1] [%],IC50 [1] [µM],melting point [°C]
CC(NC(=O)NO)c1ccc(-c2ccccc2)c(F)c1 (stereo not shown) [Compound 2],< 50,> 100,–
"O=C(NO)NCc1ccccc1Nc1c(Cl)cccc1Cl [Compound 3, N’-hydroxy-N-[(2-(2,6-dichloroanilino)phenyl)methyl]urea]",< 50,> 100,–
"CCOc1ccccc1NC(=O)N(C)C [Compound 8, 3-(2-ethoxy-phenyl)-1,1-dimethyl-urea]",–,–,71.5 to 72.5
"CN(C)C(=O)Nc1ccccc1C(=O)O [Compound 9, 2-(3,3-dimethyl-ureido)-benzoic acid]",–,–,158 to 159.5
"CCOc1ccccc1NC(=O)Nc1ccc([N+](=O)[O-])cc1 [Compound 10, 1-(2-ethoxy-phenyl)-3-(4-nitro-phenyl)-urea]",–,–,178 to 181

# From publication PMC10142505, “Synthesis, Evaluation of Enzyme Inhibition and Redox Properties of Potential Dual COX-2 and 5-LOX Inhibitors” (Pharmaceuticals, 2023)
